Measurements reported in article PMC12203311, “Design, synthesis, in silico and in vitro evaluation of pyrrole–indole hybrids as dual tubulin and aromatase inhibitors with potent anticancer activities” (RSC Advances, 2025).
Each block holds one molecule with its values, some of them ahead of it.

Legend:
CCRF-CEM = test: NCI60 five-dose screen; assay type: cell-based; conditions: Homo sapiens, leukemia; for CC50: read-out: LC50 (the source's name)
HL-60 (TB) = test: NCI60 five-dose screen; assay type: cell-based; conditions: Homo sapiens, leukemia; for CC50: read-out: LC50 (the source's name)
MOLT-4 = test: NCI60 five-dose screen; assay type: cell-based; conditions: Homo sapiens, MOLT-4, leukemia; for CC50: read-out: LC50 (the source's name)
RPMI-8226 = test: NCI60 five-dose screen; assay type: cell-based; conditions: Homo sapiens, RPMI-8226, leukemia; for CC50: read-out: LC50 (the source's name)
NCI-H322M = test: NCI60 five-dose screen; assay type: cell-based; conditions: Homo sapiens, NSC lung cancer; for CC50: read-out: LC50 (the source's name)
NCI-H522 = test: NCI60 five-dose screen; assay type: cell-based; conditions: Homo sapiens, NCI-H522, NSC lung cancer; for CC50: read-out: LC50 (the source's name)
HCC-2998 = test: NCI60 five-dose screen; assay type: cell-based; conditions: Homo sapiens, HCC-2998, colon cancer; for CC50: read-out: LC50 (the source's name)
KM12 = test: NCI60 five-dose screen; assay type: cell-based; conditions: Homo sapiens, KM12, colon cancer; for CC50: read-out: LC50 (the source's name)
SW-620 = test: NCI60 five-dose screen; assay type: cell-based; conditions: Homo sapiens, SW-620, colon cancer; for CC50: read-out: LC50 (the source's name)
SF-268 = test: NCI60 five-dose screen; assay type: cell-based; conditions: Homo sapiens, SF-268, CNS cancer; for CC50: read-out: LC50 (the source's name)
SF-295 = test: NCI60 five-dose screen; assay type: cell-based; conditions: Homo sapiens, SF-295, CNS cancer; for CC50: read-out: LC50 (the source's name)
SNB-19 = test: NCI60 five-dose screen; assay type: cell-based; conditions: Homo sapiens, SNB-19, CNS cancer; for CC50: read-out: LC50 (the source's name)
U251 = test: NCI60 five-dose screen; assay type: cell-based; conditions: Homo sapiens, U-251, U251, CNS cancer; for CC50: read-out: LC50 (the source's name)
MALME-3M = test: NCI60 five-dose screen; assay type: cell-based; conditions: Homo sapiens, melanoma; for CC50: read-out: LC50 (the source's name)
SK-MEL-28 = test: NCI60 five-dose screen; assay type: cell-based; conditions: Homo sapiens, SK-MEL-28, melanoma; for CC50: read-out: LC50 (the source's name)
UACC-257 = test: NCI60 five-dose screen; assay type: cell-based; conditions: Homo sapiens, UACC-257, melanoma; for CC50: read-out: LC50 (the source's name)
OVCAR-5 = test: NCI60 five-dose screen; assay type: cell-based; conditions: Homo sapiens, OVCAR-5, ovarian cancer; for CC50: read-out: LC50 (the source's name)
OVCAR-8 = test: NCI60 five-dose screen; assay type: cell-based; conditions: Homo sapiens, OVCAR-8, ovarian cancer; for CC50: read-out: LC50 (the source's name)
NCI/ADR-RES = test: NCI60 five-dose screen; assay type: cell-based, human; conditions: Homo sapiens, ovarian cancer; for CC50: read-out: LC50 (the source's name)
SK-OV-3 = test: NCI60 five-dose screen; assay type: cell-based; conditions: Homo sapiens, SK-OV-3, ovarian cancer; for CC50: read-out: LC50 (the source's name)
SN12C = test: NCI60 five-dose screen; assay type: cell-based; conditions: Homo sapiens, renal cancer; for CC50: read-out: LC50 (the source's name)
TK-10 = test: NCI60 five-dose screen; assay type: cell-based; conditions: Homo sapiens, TK-10, renal cancer; for CC50: read-out: LC50 (the source's name)
MDA-MB-231/ATCC = test: NCI60 five-dose screen; assay type: cell-based; conditions: Homo sapiens, breast cancer; for CC50: read-out: LC50 (the source's name)
HS 578T = test: NCI60 five-dose screen; assay type: cell-based; conditions: Homo sapiens, breast cancer; for CC50: read-out: LC50 (the source's name)
T-47D = test: NCI60 five-dose screen; assay type: cell-based; conditions: Homo sapiens, T47D, breast cancer; for CC50: read-out: LC50 (the source's name)
MDA-MB-468 = test: NCI60 five-dose screen; assay type: cell-based; conditions: Homo sapiens, MDA-MB-468, breast cancer; for CC50: read-out: LC50 (the source's name)
Human CYP19 (aromatase) = target: T1, Human CYP19 (aromatase) (Homo sapiens, UniProt P11511); test: Aromatase inhibition assay (DBF fluorometric substrate); assay type: biochemical; conditions: active defined as IC50 < 12.5 µM
T1 construct: purchased GENTEST, Woburn, MA 456260; host or cells: baculovirus/insect cells
T1 sequence (P11511 1-503): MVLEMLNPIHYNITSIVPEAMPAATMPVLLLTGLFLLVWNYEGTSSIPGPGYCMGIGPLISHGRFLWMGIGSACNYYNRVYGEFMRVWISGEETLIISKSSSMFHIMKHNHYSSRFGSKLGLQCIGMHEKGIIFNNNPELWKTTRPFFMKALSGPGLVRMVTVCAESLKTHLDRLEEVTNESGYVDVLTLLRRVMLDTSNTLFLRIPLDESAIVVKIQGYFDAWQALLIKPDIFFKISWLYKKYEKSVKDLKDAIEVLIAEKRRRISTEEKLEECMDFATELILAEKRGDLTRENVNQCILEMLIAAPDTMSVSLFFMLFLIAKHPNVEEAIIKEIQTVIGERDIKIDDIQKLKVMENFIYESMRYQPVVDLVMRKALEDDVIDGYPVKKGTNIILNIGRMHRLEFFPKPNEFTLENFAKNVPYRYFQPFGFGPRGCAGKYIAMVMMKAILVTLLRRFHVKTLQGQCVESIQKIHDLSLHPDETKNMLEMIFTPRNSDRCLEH
Description: Aromatase enzyme was purchased from GENTEST, Woburn, MA01801, USA (Supersom human CYP19+oxidoreductase, baculovirus/insect cell-expressed; Product No. 456260). The aromatase inhibitory activity was performed using Human CYP19 enzymes and DBF as a fluorometric substrate as described by Stresser, et al.[41] with minor modifications. The mixture, containing 100 µL of cofactor/serial dilution buffer was pre-incubated in 37 °C for 10 min. […] After incubation at 37 °C for 30 min, the reaction was stopped by addition of 50 µL of 2.2 M NaOH. Fluorescence signal was monitored using an excitation wavelength of 490 nm and emission wavelength of 530 nm.

IC50 (Human CYP19 (aromatase)): 1.3 ± 0.4 µM
SMILES: CCOC(=O)c1c[nH]c(/C=N/NC(=O)c2[nH]c3ccc(Br)cc3c2-c2ccccc2)c1 [Derivative 3j, Ethyl (E)-5-((2-(5-bromo-3-phenyl-1H-indole-2-carbonyl)hydrazono)methyl)-1H-pyrrole-3-carboxylate]
GI50 (CCRF-CEM): 2.41 µM | CC50 (CCRF-CEM): > 100 µM | GI50 (HL-60 (TB)): 1.5 µM | CC50 (HL-60 (TB)): 9.88 µM | GI50 (MOLT-4): 2.1 µM | CC50 (MOLT-4): 53.4 µM | GI50 (RPMI-8226): 2.52 µM | CC50 (RPMI-8226): > 100 µM | GI50 (NCI-H322M): 5.63 µM | CC50 (NCI-H322M): 50 µM | GI50 (NCI-H522): 2.27 µM | CC50 (NCI-H522): 33 µM | GI50 (HCC-2998): 2.18 µM | CC50 (HCC-2998): 15.9 µM | GI50 (KM12): 2.21 µM | CC50 (KM12): 33.9 µM | GI50 (SW-620): 3.36 µM | CC50 (SW-620): 76.2 µM | GI50 (SF-268): 2.29 µM | CC50 (SF-268): 46.3 µM | GI50 (SF-295): 2.34 µM | CC50 (SF-295): 24.4 µM | GI50 (SNB-19): 4.51 µM | CC50 (SNB-19): 46.1 µM | GI50 (U251): 2.66 µM | CC50 (U251): 40.6 µM | GI50 (MALME-3M): 6.06 µM | CC50 (MALME-3M): 54.9 µM | GI50 (SK-MEL-28): 4.56 µM | CC50 (SK-MEL-28): 45.8 µM | GI50 (UACC-257): 2.53 µM | CC50 (UACC-257): 51.8 µM | GI50 (OVCAR-5): 3.87 µM | CC50 (OVCAR-5): 42.9 µM | GI50 (OVCAR-8): 2.37 µM | CC50 (OVCAR-8): 23.7 µM | GI50 (NCI/ADR-RES): 1.89 µM | CC50 (NCI/ADR-RES): 10.4 µM | GI50 (SK-OV-3): 4.53 µM | CC50 (SK-OV-3): 45.3 µM | GI50 (SN12C): 2.49 µM | CC50 (SN12C): 33.3 µM | GI50 (TK-10): 7.35 µM | CC50 (TK-10): 46.2 µM | GI50 (MDA-MB-231/ATCC): 2.85 µM | CC50 (MDA-MB-231/ATCC): 36.8 µM | GI50 (HS 578T): 2.36 µM | CC50 (HS 578T): > 100 µM | GI50 (T-47D): 2.91 µM | CC50 (T-47D): 86.9 µM | GI50 (MDA-MB-468): 2.47 µM | CC50 (MDA-MB-468): 24.2 µM

IC50 (Human CYP19 (aromatase)): 0.2 ± 0.1 µM
SMILES: Cc1[nH]c(/C=N/NC(=O)c2[nH]c3ccc(Br)cc3c2-c2ccccc2)c(C)c1[N+](=O)[O-] [Derivative 3r, (E)-5-Bromo-N′-((3,5-dimethyl-4-nitro-1H-pyrrol-2-yl)methylene)-3-phenyl-1H-indole-2-carbohydrazide]
GI50 (CCRF-CEM): 1.89 µM | CC50 (CCRF-CEM): > 100 µM | GI50 (HL-60 (TB)): 2.31 µM | CC50 (HL-60 (TB)): > 100 µM | GI50 (MOLT-4): 2.29 µM | CC50 (MOLT-4): > 100 µM | GI50 (RPMI-8226): 2.7 µM | CC50 (RPMI-8226): > 100 µM | GI50 (NCI-H322M): 4.22 µM | CC50 (NCI-H322M): 89.5 µM | GI50 (NCI-H522): 2.43 µM | CC50 (NCI-H522): 29.6 µM | GI50 (HCC-2998): 2.41 µM | CC50 (HCC-2998): 25.4 µM | GI50 (KM12): 1.92 µM | CC50 (KM12): 11.6 µM | GI50 (SW-620): 2.06 µM | CC50 (SW-620): 19.1 µM | GI50 (SF-268): 2.37 µM | CC50 (SF-268): 33.1 µM | GI50 (SF-295): 2.32 µM | CC50 (SF-295): 21.2 µM | GI50 (SNB-19): 3.45 µM | CC50 (SNB-19): 43.1 µM | GI50 (U251): 1.85 µM | CC50 (U251): 13.4 µM | GI50 (MALME-3M): 1.99 µM | CC50 (MALME-3M): 28.5 µM | GI50 (SK-MEL-28): 3.56 µM | CC50 (SK-MEL-28): 38.7 µM | GI50 (UACC-257): 3.13 µM | CC50 (UACC-257): 48.1 µM | GI50 (OVCAR-5): 3.53 µM | CC50 (OVCAR-5): 41.5 µM | GI50 (OVCAR-8): 3.08 µM | CC50 (OVCAR-8): 36.5 µM | GI50 (NCI/ADR-RES): 1.89 µM | CC50 (NCI/ADR-RES): 9.15 µM | GI50 (SK-OV-3): 3.23 µM | CC50 (SK-OV-3): 39.2 µM | GI50 (SN12C): 1.74 µM | CC50 (SN12C): 6.73 µM | GI50 (TK-10): 5.1 µM | CC50 (TK-10): 41.2 µM | GI50 (MDA-MB-231/ATCC): 3.56 µM | CC50 (MDA-MB-231/ATCC): 40.5 µM | GI50 (HS 578T): 2.43 µM | CC50 (HS 578T): 97.2 µM | GI50 (T-47D): 2.51 µM | CC50 (T-47D): 33.5 µM | GI50 (MDA-MB-468): 1.94 µM | CC50 (MDA-MB-468): 26.1 µM
